# Assay results taken from patent US20190388377A1, “COMPOSITIONS AND METHODS FOR THE TREATMENT OF LIVER DISEASES AND DISORDERS” (AXCELLA HEALTH INC., priority 2018, published 2019).
# Columns and labels:
# [1] = test system: primary human hepatocytes; assay: Intracellular triglyceride level after 72 h, colorimetric assay, Example 3; assay type: cell-based
# Protocol: On day 2, cells were washed twice with DPBS 1× (Gibco) and maintained in: • a. Amino acid-free WEM (US Biologicals) supplemented with 11 mM Glucose (Sigma), 0.272 mM Sodium Pyruvate (Sigma), 1× P/S (Gibco) and containing a defined custom amino acid concentration based on the mean physiological concentrations in blood (1× HMDB WEM (−) supplemental amino acids); or • b. The same media described above 1×HMDB WEM (+) supplemental amino acids treatment dose at a 30× of HMDB amino acid concentration. Cells were maintained in the defined amino acids media (a. & b.) for 24 hours at 37° C., 5% CO2. Co-Treatment with Free Fatty Acids and Various Amino Acids Supplemental Treatments
# After 24 h pre-treatment, cells maintained in the same media (a. & b.) described above 1×HMDB±supplemental amino acids were now exposed to free fatty acids (FFA) at 250 uM with a ratio of 2:1 (Oleate:Palmitate) supplemented with TNF-α (Thermofisher) at 1 ng/ml or vehicle. Cells with the FFAs+TNFα mixture±amino acids treatments were incubated for 72 hours at 37° C., 5% CO2 with a media change after the first 24 hours.
# After 72 hours, cells were washed once with cold PBS 1× (Gibco), scrapped off and collected into 75 ul of standard diluent (Cayman). Collected cells were vortexed for 1 min at a 2500 rpm speed followed by two times sonication (Elmasonic sonicator) for 1 min each. Supernatants were collected for triglyceride analysis after centrifugation at 1000 rpm for 10 min at 4° C. Intracellular triglyceride level was assessed using triglyceride colorimetric assay kit (Cayman) and following manufacturer's recommendations. Data was normalized to the total amount of protein using Bicinchoninic Acid Protein Assay Kit (Sigma). Data is reported as median fold change from FFAs+TNFα condition, statistical analysis was done using t-Test.
# [2] = test system: TNFa; assay: TNFa secretion by ELISA, LPS-treated primary human M1 macrophages, Example 5; assay type: cell-based
# Protocol: Primary human PMBC derived macrophages were seeded on day 0 at 3.0E4 cells per well in 96-well microplates (ThermoFisher) in Dulbecco's Modified Eagle Medium (DMEM) (Gibco) supplemented with penicillin-streptomycin (Hyclone) and 10% heat inactivated fetal bovine serum (HI-FBS) (Atlanta Bio) and incubated overnight at 37° C., 5% CO2. On day 1, cells were washed once with 150 uL per well DPBS (Gibco) and treated with 75 uL of: • a. Amino acid free DMEM (US Biologicals) containing a defined custom amino acid concentration based on the mean physiological concentrations in blood based on values published in the Human Metabolome Database (HMDB), with 6 mM glucose, 1 mM sodium pyruvate, 10 mM HEPES, 0.2% primocin (InVivoGen); or • b. The same media described above with supplemental amino acid and amino acid combination treatments at various concentrations. […]
# On day 3, the supernatant was collected and immediately frozen in −80° C. freezer. Cells were washed once with 150 uL DPBS and viability was assessed using the WST-8 Cell Proliferation Cytotoxicity Assay (Dojindo). […] Protein levels in supernatant samples were analyzed by ELISA for IL-6 and TNFa using commercially available kits (R&D Systems) according to manufacturer-supplied protocols.
# [3] = test system: Urea; assay: Urea production after 72 h by urea nitrogen (BUN) colorimetric assay, PHH model, Example 2; assay type: cell-based, human; details: FFA+TNFα
# Protocol: (§1) PHH from two healthy human donors (Lonza, TRL) were seeded on day 0 at density of 6e04 cells in 96 well optical microplates (Thermofisher) in hepatocyte plating media (William's E medium, WEM) (Gibco) supplemented with 10% heat-inactivated FBS (Atlanta Bio), 2 mM Glutamax (Gibco), and 0.2% Primocin (InVivoGen) and incubated for 6 hours at 37° C., 5% CO2. After 6 hours, cells were washed twice and incubated overnight at 37° C., 5% CO2 with Hepatocytes defined medium (Corning) supplemented with 2 mM Glutamax (Gibco), and 1× Penicillin/Streptomycin. On day 1, cells were washed twice and incubated for 24 h in the hepatocyte culture media in the same conditions described above.
# (§2) On day 2, cells were washed twice with DPBS 1× (Gibco) to remove excess amino acids and maintained in pretreatment media (1×HMDB, a defined custom amino acid concentration based on the mean physiological concentrations in blood, in WEM±supplemental amino acids): • a. Amino acid-free WEM (US Biologicals) supplemented with 11 mM Glucose (Sigma), 0.272 mM Sodium Pyruvate (Sigma), 1× P/S (Gibco) and containing 1×HMDB with no supplemental amino acids; or • b. The same media described above 1×HMDB WEM with supplemental amino acid and amino acid combination treatments at various concentrations. Cells were maintained in the defined media (a. & b.) for 24 hours at 37° C., 5% CO2. The HMDB values are published in the Human Metabolome Database (Wishart D S, Tzur D, Knox C, et al., HMDB: the Human Metabolome Database. Nucleic Acids Res. 2007 January; 35 (Database issue):D521-6. 17202168; which is hereby incorporated by reference in its entirety). Co-Treatment with Free Fatty Acids and Amino Acids Combination
# (§3) After 24 h pre-treatment, cells maintained in the pretreatment media±supplemental amino acids (section (a. & b.) described above) were exposed to free fatty acids (FFA) at 250 uM with a ratio of 2:1 (Oleate:Palmitate) supplemented with TNF-α (Thermofisher) at 1 ng/ml. Cells were incubated with the FFAs mixture (FFAs+TNF-α)±supplemental amino acids treatments for 24 hours at 37° C., 5% CO2. After 24 hours incubation, media was removed for cytokine analysis and replaced by fresh media containing the same conditions described above (FFAs mixture±supplemental amino acids treatments). Cells were incubated for an additional 48 hours for a total of 72 hours of FFA and TNF-α stimulation. After 72 hours of incubation, media was removed for albumin and urea analysis and the cells were fixed for nuclei and lipid staining.
# Urea was measured as an indicator of hepatocytes functionality by urea nitrogen direct assay (StanBio). Cell supernatant was added to the BUN color reagent and BUN acid reagent at 1(color):2(acid) ratio. Incubate the cell supernatant with BUN reagent for 12 min at 100° C. then for 5 min at 4° C. Read absorbance at 520 nm. Data was normalized to the control. Data is reported as median fold change from control, statistical analysis was done using t-Test.
# [4] = test system: Albumin; assay: Albumin secretion after 72 h by ELISA, PHH model, Example 2; assay type: cell-based, human; details: FFA+TNFα
# Protocol: as §1, §2, §3
# Albumin secretion was measured as a functionality test in primary human hepatocytes. Albumin was measured by ELISA (Human Albumin ELISA Quantitation set, Bethyl Laboratories) at 1/200 dilution in the sample diluent (Bethyl Laboratories). Data is reported as median fold change from control, statistical analysis was done using t-Test.
compound,measurement,setting,value
"CC(=O)N[C@@H](CS)C(=O)O [Nac, N-acetylcysteine]","Triglyceride Level relative to the baseline FFA + TNF, Median","[1]; FFA + TNF, 72 h, two donors, AA Conc 1X, Nac/Car 7.5 mM",−1.172
same,triglyceride level (in words),"[1]; FFAs+TNFα, two healthy donors",reduces triglyceride level but the effect was less pronounced than the combinations described previously
same,LPS-stimulated TNFa secretion (in words),[2],decreased LPS-stimulated IL-6 and TNFa secretion
same,urea production (in words),[3]; hepatocyte donor 1,No changes in urea production
same,urea production (in words),[3]; hepatocyte donor 2,slightly induce urea production
same,albumin secretion (in words),[4]; hepatocyte donor 1,slightly decreased albumin secretion
same,albumin secretion (in words),[4]; hepatocyte donor 2,induce albumin secretion
